Columns and labels:
[1] = target: T1, recombinant human ALK5 (TGF-βR1) protein (Homo sapiens, UniProt P36897); assay: Biochemical ALK5 (TGF-βR1) assay to measure pKi (LANCE Ultra ULight kinase assay); conditions: apparent pKi, converted from pIC50 using the Cheng-Prusoff equation
T1 construct: purchased Life Technologies PR9075A
T1 sequence (P36897 34-503): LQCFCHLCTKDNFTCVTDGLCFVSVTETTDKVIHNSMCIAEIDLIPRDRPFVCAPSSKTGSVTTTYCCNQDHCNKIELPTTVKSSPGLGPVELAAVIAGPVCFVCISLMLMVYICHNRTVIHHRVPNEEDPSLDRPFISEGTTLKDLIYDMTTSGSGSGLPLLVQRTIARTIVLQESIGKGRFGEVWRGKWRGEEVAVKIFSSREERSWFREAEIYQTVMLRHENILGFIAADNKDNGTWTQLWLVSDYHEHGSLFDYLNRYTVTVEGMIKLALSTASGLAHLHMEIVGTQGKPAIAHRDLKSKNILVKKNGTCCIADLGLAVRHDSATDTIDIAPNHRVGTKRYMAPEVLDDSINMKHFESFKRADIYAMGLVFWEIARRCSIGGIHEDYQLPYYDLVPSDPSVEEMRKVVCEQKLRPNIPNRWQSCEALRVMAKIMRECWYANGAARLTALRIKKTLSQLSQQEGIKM
Method: Example 254: Biochemical ALK5 (TGF-βR1) Assay to Measure pKi
The assays were performed in a 384-well plate (24 columns×16 wells/rows). An Echo® 550 Liquid Handler (Labcyte) was used to prepare various intermediate concentrations of compounds of the present disclosure in 100% DMSO. From the intermediate concentrations, a range of concentrations (from 10 μM to 25 pM corresponding to volumes up to 105 nL) were prepared and ejected into a final assay plate to be used to create individual dose response curves for each of the subject compounds. To a separate column within the assay plate, 105 nL of DMSO in each well was used to establish a maximum assay signal. Additionally, 105 nL of 100 μM SD-208, a selective TGF-βR1 inhibitor (Catalog #S7624, Selleck Chemicals), was used in another column of wells to establish a minimal assay signal.
With a multidrop dispenser, 8 μL of enzyme mixture (1.25× final) was added to each well. The enzyme mixture consisted of 250 pM ALK5 enzyme and 62.5 nM peptide substrate (LANCE® (lanthanide chelate excite) Ultra ULight™-DNA Topoisomerase 2-alpha (Thr1342)) prepared in assay buffer (50 mM HEPES, 10 mM MgCl2, 1 mM EGTA, 0.01% Tween-20, pH 7.5 at room temperature) with 2 mM DTT added prior to use. The plate was then sealed with an adhesive seal and allowed to equilibrate for 60 minutes at room temperature.
Next, 2 μL of 125 μM ATP (5× final, 125 μM ATP prepared in assay buffer with 2 mM DTT) was added to the incubated mixtures, covered with a MicroClime® Environmental Lid (Product No. LLS-0310, Labcyte) and immediately transferred to 37° C. The reactions were allowed to proceed at 37° C. for 60 minutes before terminating with the addition of 10 μL of detection antibody (LANCE® (lanthanide chelate excite) Ultra Europium-anti-phospo-DNA Topoisomerase 2-alpha (Thr1342)) in detection mixture (12 mM EDTA, 4 nM detection antibody prepared in detection buffer (50 mM Tris-HCl, 150 mM NaCl, 0.5% BSA (Fraction V), pH 7.0)) at room temperature. The plate was then read on a Perkin Elmer EnVision Plate Reader using europium specific reader settings with excitation and emission wavelengths set to 320 or 340 nm and 665 nm, respectively.
For dose-response analyses, percent inhibition versus compound concentrations were plotted, and pIC50 values were determined from a 4-parameter robust fit model with GraphPad Prism V5 Software (GraphPad Software, Inc., La Jolla, Calif.). This model obtains pIC50 values by fitting the sigmodial dose-response (variable slope) equation to the data. Results were expressed as pIC50 (negative logarithm of IC50) and subsequently converted to pKi (negative logarithm of dissociate constant, K) using the Cheng-Prusoff equation.
The higher the value of pKi (lower value of Ki), the greater the inhibition of ALK5 activity.

[2] = system: TGF-β-stimulated SMAD3 phosphorylation in BEAS-2B cells; assay: Cellular ALK5 potency assay, inhibition of TGF-β stimulated pSMAD3 formation in BEAS-2B cells; format: cell-based; conditions: Homo sapiens, inhibition of TGF-β (10 ng/mL) stimulated pSMAD3 formation, 1 hour compound incubation, read-out: BEAS2B pIC50 (converted)
Method: Example 255: Cellular ALK5 Potency Assay to Measure pIC50, Inhibition of TGF-β Stimulated pSMAD3 Formation in BEAS-2B Cells
The potency of compounds of the present disclosure for inhibition of TGF-β-stimulated SMAD3 phosphorylation was measured in BEAS-2B cells, a human lung epithelial cell line. TGF-β signals through activin receptor-like kinase 5 (ALK5) immediately prior to SMAD3 phosphorylation.
BEAS-2B cells were grown using 50% DMEM (Life Technologies) and 50% F-12 (Life Technologies) media, supplemented with 10% Fetal Bovine Serum (ATCC), 25 mM HEPES (Life Technologies), and 1×Pen-Strep (Life Technologies). Cells were cultured in a humidified incubator set at 37° C., 5% CO2, and trypsonized using 0.25% Trypsin with 0.5% polyvinylpyrrolidone (PVP).
For the assay, BEAS-2B cells were seeded at 7,500 cells/well (25 μL/well) in a 384-well plate and cultured overnight. Before dosing, growth media was aspirated and the wells were rinsed with HBSS Buffer (HBSS with Calcium and Magnesium, Life Technologies) supplemented with 25 mM HEPES (Life Technologies) and 1% Bovine Serum Albumin (Roche). Compounds were serially diluted in DMSO, then further diluted with supplemented HBSS Buffer (50 μL/well) to create a compound plate 3× of the final assay concentration, at 0.3% DMSO. The diluted compounds were then added to the cells (8 μL/well) and incubated at 37° C., 5% CO2 for 1 hour. After the compound incubation, TGF-β (R&D Systems) reconstituted in supplemented HBSS Buffer was added to the cells ([…], final concentration 10 ng/mL) and incubated for a further 30 minutes, after which the cells were immediately lysed with AlphaLISA lysis buffer (PerkinElmer). AlphaLISA Acceptor and Detector beads (PerkinElmer) were added 2 hours apart, then incubated overnight to be read the next day. The potency of the compound was determined through analysis of dose-dependent quantified changes in pSMAD3 signal from baseline (non-compound treated TGF-β stimulated cells). Data are expressed as pIC50 (negative decadic logarithm IC50) values.

| Ki [1] | Compound | IC50 [2] |
| --- | --- | --- |
| 0.0398 to 0.316 nM | COCc1cccc(-c2n[nH]cc2-c2ccc3ncc(-c4cnn([C@H]5CCCC[C@H]5N)c4)cc3n2)c1 [Compound 14-18, (1R,2S)-2-[4-[6-[3-[3-(methoxymethyl)phenyl]-1H-pyrazol-4-yl]-1,5-naphthyridin-3-yl]pyrazol-1-yl]cyclohexanamine] | 25.1 to 158 nM |
| 0.0398 to 0.316 nM | COCc1cccc(-c2n[nH]cc2-c2ccc3ncc(-c4cnn(CCN)c4)cc3n2)c1 [Compound 14-13, 2-[4-[6-[3-[3-(methoxymethyl)phenyl]-1H-pyrazol-4-yl]-1,5-naphthyridin-3-yl]pyrazol-1-yl]ethanamine] | 25.1 to 158 nM |
| 0.0398 to 0.316 nM | Fc1cc(F)c(-c2n[nH]cc2-c2ccc3ncc(NC4CCNCC4)cc3n2)cc1Cl [Compound 6-10, 6-[3-(5-chloro-2,4-difluoro-phenyl)-1H-pyrazol-4-yl]-N-(4-piperidyl)-1,5-naphthyridin-3-amine] | 200 to 1260 nM |
| 3.98 to 31.6 nM | Fc1ccccc1-c1n[nH]cc1-c1ccc2ncc(-c3cccnc3)cc2n1 [Compound 11-4, 2-[3-(2-fluorophenyl)-1H-pyrazol-4-yl]-7-(3-pyridyl)-1,5-naphthyridine] | 25.1 to 158 nM |

More lines, now with the values behind:

| Compound | Ki [1] | IC50 [2] |
| --- | --- | --- |
| Fc1ccc(Cl)cc1-c1n[nH]cc1-c1ccc2ncc(-c3cnc4n3CCN4)cc2n1 [Compound 1-106, 2-[3-(5-chloro-2-fluoro-phenyl)-1H-pyrazol-4-yl]-7-(6,7-dihydro-5H-imidazo[1,2-a]imidazol-3-yl)-1,5-naphthyridine] | ≤ 0.0316 nM | 25.1 to 158 nM |
| CN1CC=C(c2nc3n(n2)CCN(c2cnc4ccc(-c5c[nH]nc5-c5cc(Cl)ccc5F)nc4c2)C3)C1 [Compound 1-86, 2-(3-(5-chloro-2-fluorophenyl)-1H-pyrazol-4-yl)-7-(2-(1-methyl-2,5-dihydro-1H-pyrrol-3-yl)-5,6-dihydro-[1,2,4]triazolo[1,5-a]pyrazin-7(8H)-yl)-1,5-naphthyridine] | ≤ 0.0316 nM | 25.1 to 158 nM |
| CN1CCN(C2CCN(c3cnc4ccc(-c5nc[nH]c5-c5cc(Cl)ccc5F)nc4c3)CC2)CC1 [Compound 2-10, 2-[5-(5-chloro-2-fluoro-phenyl)-1H-imidazol-4-yl]-7-[4-(4-methylpiperazin-1-yl)-1-piperidyl]-1,5-naphthyridine] | 0.0398 to 0.316 nM | 25.1 to 158 nM |
| Fc1ccc(Cl)cc1-c1n[nH]cc1-c1ccc2ncc(-c3cnc4n3CCNC4)cc2n1 [Compound 1-107, 2-[3-(5-chloro-2-fluoro-phenyl)-1H-pyrazol-4-yl]-7-(5,6,7,8-tetrahydroimidazo[1,2-a]pyrazin-3-yl)-1,5-naphthyridine] | 0.0398 to 0.316 nM | 25.1 to 158 nM |
| Fc1ccc(Cl)cc1-c1n[nH]cc1-c1ccc2ncc(N3CCn4nc(N5CCN(Cc6ccccc6)CC5)cc4C3)cc2n1 [Compound 1-47, 7-[2-(4-benzylpiperazin-1-yl)-6,7-dihydro-4H-pyrazolo[1,5-a]pyrazin-5-yl]-2-[3-(5-chloro-2-fluoro-phenyl)-1H-pyrazol-4-yl]-1,5-naphthyridine] | 0.0398 to 0.316 nM | 25.1 to 158 nM |
| Fc1ccc(Cl)cc1-c1nc2ccccn2c1-c1ccc2ncc(-c3cnc4n3CCNC4)cc2n1 [Compound 3-8, 2-[2-(5-chloro-2-fluoro-phenyl)imidazo[1,2-a]pyridin-3-yl]-7-(5,6,7,8-tetrahydroimidazo[1,2-a]pyrazin-3-yl)-1,5-naphthyridine] | 0.0398 to 0.316 nM | 25.1 to 158 nM |
| CNC1CCN(c2cnc3ccc(-c4c[nH]nc4-c4cc(Cl)ccc4F)nc3c2)C1 (centres unmarked) [Compound 1-56, 1-[6-[3-(5-chloro-2-fluoro-phenyl)-1H-pyrazol-4-yl]-1,5-naphthyridin-3-yl]-N-methyl-pyrrolidin-3-amine] | 0.0398 to 0.316 nM | ≤ 20 nM |
| CNC(=O)C1CN(c2cnc3ccc(-c4c[nH]nc4-c4cc(Cl)ccc4F)nc3c2)CCN1C (racemic) [Compound 1-81, rac-(2S)-4-[6-[3-(5-chloro-2-fluoro-phenyl)-1H-pyrazol-4-yl]-1,5-naphthyridin-3-yl]-N,1-dimethyl-piperazine-2-carboxamide] | 0.398 to 3.16 nM | – |

From US11730720B2, “ALK5 inhibitors” (THERAVANCE BIOPHARMA R&D IP, LLC, priority 2018, dated 2023)
